Activity calls are given as the source filed them. The calls are words filed in the database; no cut-off is given here.

In data set [1] the target is T1, Adrenergic receptor alpha-2 (Rattus norvegicus, UniProt P22086+P19328+P22909).
T1 sequence (P22086 whole entry): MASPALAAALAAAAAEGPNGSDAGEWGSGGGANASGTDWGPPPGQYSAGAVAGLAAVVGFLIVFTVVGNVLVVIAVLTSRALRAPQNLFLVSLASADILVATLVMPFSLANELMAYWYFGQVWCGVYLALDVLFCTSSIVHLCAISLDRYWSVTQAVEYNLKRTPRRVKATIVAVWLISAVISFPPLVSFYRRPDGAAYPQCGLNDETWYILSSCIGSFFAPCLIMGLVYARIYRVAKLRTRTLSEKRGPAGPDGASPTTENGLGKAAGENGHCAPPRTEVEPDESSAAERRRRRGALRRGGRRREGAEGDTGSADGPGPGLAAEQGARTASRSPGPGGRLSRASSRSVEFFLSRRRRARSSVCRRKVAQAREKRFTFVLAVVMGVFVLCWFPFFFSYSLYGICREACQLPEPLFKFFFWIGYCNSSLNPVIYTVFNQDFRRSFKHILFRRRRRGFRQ
T1 sequence (P19328 whole entry): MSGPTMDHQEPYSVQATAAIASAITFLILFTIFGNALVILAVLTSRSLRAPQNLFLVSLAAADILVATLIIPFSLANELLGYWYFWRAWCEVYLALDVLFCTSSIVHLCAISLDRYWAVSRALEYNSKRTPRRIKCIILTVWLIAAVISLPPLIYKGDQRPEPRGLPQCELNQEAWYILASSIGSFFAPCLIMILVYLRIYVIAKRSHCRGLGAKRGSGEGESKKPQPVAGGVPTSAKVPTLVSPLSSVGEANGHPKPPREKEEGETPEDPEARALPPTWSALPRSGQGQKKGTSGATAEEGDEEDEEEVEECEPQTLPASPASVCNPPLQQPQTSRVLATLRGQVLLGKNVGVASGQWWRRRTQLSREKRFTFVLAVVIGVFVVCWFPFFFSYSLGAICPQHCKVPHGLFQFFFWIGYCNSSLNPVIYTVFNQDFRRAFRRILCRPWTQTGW
T1 sequence (P22909 whole entry): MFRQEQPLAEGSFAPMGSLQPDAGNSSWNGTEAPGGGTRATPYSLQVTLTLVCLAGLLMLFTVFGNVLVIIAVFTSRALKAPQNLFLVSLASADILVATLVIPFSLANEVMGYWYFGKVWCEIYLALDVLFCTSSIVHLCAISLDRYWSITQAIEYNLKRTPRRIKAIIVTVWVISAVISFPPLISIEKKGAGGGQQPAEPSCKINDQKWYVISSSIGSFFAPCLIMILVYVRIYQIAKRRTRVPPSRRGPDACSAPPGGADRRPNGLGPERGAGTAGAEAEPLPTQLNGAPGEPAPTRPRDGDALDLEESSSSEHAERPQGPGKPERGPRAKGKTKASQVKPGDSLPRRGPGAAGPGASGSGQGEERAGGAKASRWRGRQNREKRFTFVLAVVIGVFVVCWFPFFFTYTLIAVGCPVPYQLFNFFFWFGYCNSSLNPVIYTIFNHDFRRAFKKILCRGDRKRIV
The data set is described as follows: Displacement of [3H]clonidine from alpha2 adrenergic receptor in rat brain cerebral cortex after 25 mins by microbeta scintillation counting method. Type of data set: tissue-based.

Data set [2] deals with Rattus norvegicus. The experiment in a line: Hypotensive activity in normotensive anesthetized Wistar rat assessed as systolic blood pressure at 0.5 mg/kg, iv measured 5 mins post dose (reference value: 107.4 to 148.3 mmHg). The data set is classed as functional.
The test system of data set [3] is Rattus norvegicus. The experiment in a line: Hypotensive activity in normotensive anesthetized Wistar rat assessed as diastolic blood pressure at 0.5 mg/kg, iv measured 5 mins post dose (reference value: 81.6 to 115.2 mmHg). Type of data set: functional.
Data set [4] relates to Rattus norvegicus. The data set is described as follows: Hypotensive activity in normotensive anesthetized Wistar rat assessed as systolic blood pressure at 0.5 mg/kg, iv measured 10 mins post dose (reference value: 107.4 to 148.3 mmHg). The data set is classed as functional.
The subject of data set [5] is Rattus norvegicus. The data set is described as follows: Hypotensive activity in normotensive anesthetized Wistar rat assessed as diastolic blood pressure at 0.5 mg/kg, iv measured 10 mins post dose (reference value: 81.6 to 115.2 mmHg). Type of data set: functional.
For data set [6], the system named is Rattus norvegicus. The data set is described as follows: Hypotensive activity in normotensive anesthetized Wistar rat assessed as systolic blood pressure at 0.5 mg/kg, iv measured 20 mins post dose (reference value: 107.4 to 148.3 mmHg). The data set is classed as functional.
For data set [7], the system named is Rattus norvegicus. The experiment in a line: Hypotensive activity in normotensive anesthetized Wistar rat assessed as diastolic blood pressure at 0.5 mg/kg, iv measured 20 mins post dose (reference value: 81.6 to 115.2 mmHg). The data set is classed as functional.
For data set [8], the system named is Rattus norvegicus. The data set is described as follows: Hypotensive activity in normotensive anesthetized Wistar rat assessed as diastolic blood pressure at 1 mg/kg, iv measured 30 mins post dose (reference value: 81.6 to 115.2 mmHg). Type of data set: functional.
Data set [9] deals with Rattus norvegicus. The experiment in a line: Hypotensive activity in normotensive anesthetized Wistar rat assessed as systolic blood pressure at 0.5 mg/kg, iv measured 30 mins post dose (reference value: 107.4 to 148.3 mmHg). Type of data set: functional.
Data set [10] has as its system Rattus norvegicus. The data set is described as follows: Hypotensive activity in normotensive anesthetized Wistar rat assessed as diastolic blood pressure at 0.5 mg/kg, iv measured 30 mins post dose (reference value: 81.6 to 115.2 mmHg). The data set is classed as functional.
Data set [11] deals with Rattus norvegicus. The experiment in a line: Hypotensive activity in normotensive anesthetized Wistar rat assessed as diastolic blood pressure at 1 mg/kg, iv measured 60 mins post dose (reference value: 81.6 to 115.2 mmHg). The data set is classed as functional.
Data set [12] relates to Rattus norvegicus. The data set is described as follows: Hypotensive activity in normotensive anesthetized Wistar rat assessed as systolic blood pressure at 0.5 mg/kg, iv measured 60 mins post dose (reference value: 107.4 to 148.3 mmHg). The data set is classed as functional.
The subject of data set [13] is Rattus norvegicus. The data set is described as follows: Hypotensive activity in normotensive anesthetized Wistar rat assessed as diastolic blood pressure at 0.5 mg/kg, iv measured 60 mins post dose (reference value: 81.6 to 115.2 mmHg). The data set is classed as functional.
Data set [14] can be described thus: Antidepressant-like activity in albino Swiss (CD-1) mouse assessed as immobility time at 5 mg/kg, ip administered 30 mins prior to test measured for last 4 mins of 6 mins observation by forced swim test (reference value: 178.3 +/- 12.3 sec). Type of data set: functional, organism-based.
Another data set has as its system Mus musculus. The data set is described as follows: Toxicity in albino Swiss (CD-1) mouse assessed as effect on spontaneous locomotor activity by measuring number of crossings at 5 mg/kg, ip administered 30 mins prior to test measured for last 4 mins of 6 mins observation (reference value: 191.5 to 225.4). Type of data set: organism-based. The following applies: in vivo.

For data set [15], the system named is Rattus norvegicus. The data set is described as follows: Hypotensive activity in normotensive anesthetized Wistar rat assessed as diastolic blood pressure at 0.1 mg/kg, iv measured 20 mins post dose (reference value: 81.6 to 115.2 mmHg). Type of data set: functional.
The test system of data set [16] is Rattus norvegicus. The experiment in a line: Hypotensive activity in normotensive anesthetized Wistar rat assessed as systolic blood pressure at 0.1 mg/kg, iv measured 30 mins post dose (reference value: 107.4 to 148.3 mmHg). The data set is classed as functional.
The subject of data set [17] is Rattus norvegicus. The data set is described as follows: Hypotensive activity in normotensive anesthetized Wistar rat assessed as diastolic blood pressure at 0.1 mg/kg, iv measured 60 mins post dose (reference value: 81.6 to 115.2 mmHg). Type of data set: functional.
Data set [18] concerns Rattus norvegicus. The data set is described as follows: Inhibition of adrenaline-induced pressor response in normotensive Wistar rat at 1 mg/kg, iv measured 5 mins post dose. The data set is classed as functional, organism-based.
Data set [19] concerns Rattus norvegicus. The data set is described as follows: Inhibition of methoxamine-induced pressor response in normotensive Wistar rat at 1 mg/kg, iv measured 5 mins post dose. Type of data set: functional, organism-based.

Usually Ki stands for the equilibrium dissociation constant of an inhibitor or competing ligand from its target. Higher therefore signals a looser hold on the target. Molecule `Cc1cccc(Cl)c1OCCCCN1CCN(c2ccccc2)CC1.Cl.Cl` gave a Ki in data set [1] of 505.7 nM. The Activity is on record as 135 mmHg in the data set with Rattus norvegicus [2]; 100.5 mmHg in the data set with Rattus norvegicus [3]; 135.3 mmHg in the data set with Rattus norvegicus [4]; 101 mmHg with Rattus norvegicus [5]; 138 mmHg with Rattus norvegicus [6]; 102.5 mmHg in the data set on Rattus norvegicus [7]. Besides, the Activity is 97.7 mmHg in the data set on Rattus norvegicus [8]; 131.5 mmHg in the data set on Rattus norvegicus [9]; 101.5 mmHg in the data set with Rattus norvegicus [10]; 95.2 mmHg with Rattus norvegicus [11]; 130.8 mmHg with Rattus norvegicus [12]; 97 mmHg with Rattus norvegicus [13]. Besides, in the data set with Mus musculus, the Activity is 152.4. For the same molecule, in [14], the TIME is 0.0416 h.
`Cc1cccc(OCCCN2CCN(c3ccccc3)CC2)c1C.Cl.Cl` yielded a Ki in [1] of 810 nM. Also, the Activity was 109 mmHg in the data set with Rattus norvegicus [8] and 109.7 mmHg in the data set on Rattus norvegicus [11].
Take `COc1ccccc1N1CCN(CCOCCOc2cccc(C)c2C)CC1.Cl.Cl`: in data set [1], the Ki is reported as 893 nM. Further, the Activity in the data set with Rattus norvegicus [8] stood at 105.6 mmHg; in the data set on Rattus norvegicus [11], 104 mmHg; in the data set with Mus musculus, 232.5. The TIME in data set [14] was found to be 0.0339 h.
`Cc1cccc(OCCN2CCN(c3ccccc3)CC2)c1C.Cl.Cl` came in with an inhibition constant (Ki) in data set [1] of 289 nM. Further, the Activity with Rattus norvegicus [8] and in the data set with Rattus norvegicus [11] was 67.6 mmHg each time.
Turning to `COc1ccccc1N1CCN(CCCCOc2c(C)cccc2C)CC1.Cl`, the Ki in [1] is reported as 370.5 nM. The Activity in the data set with Rattus norvegicus [2] came to 124.2 mmHg; with Rattus norvegicus [3], 102 mmHg; with Rattus norvegicus [4] it was 122.7 mmHg; with Rattus norvegicus [5], 100.8 mmHg; in the data set on Rattus norvegicus [6], 121.7 mmHg; with Rattus norvegicus [7], 99.8 mmHg. In addition, the Activity worked out at 104 mmHg in the data set on Rattus norvegicus [15]; 102 mmHg with Rattus norvegicus [8]; 119.3 mmHg in the data set on Rattus norvegicus [9]; 98.8 mmHg in the data set with Rattus norvegicus [10]; 130.3 mmHg with Rattus norvegicus [16]; 103.8 mmHg in the data set on Rattus norvegicus [11]. Also, the Activity with Rattus norvegicus [12] turned out to be 115.3 mmHg; in the data set with Rattus norvegicus [13], 94.3 mmHg; with Rattus norvegicus [17], 101.3 mmHg. The inhibition result in the data set on Rattus norvegicus [18] and in the data set on Rattus norvegicus [19] was “Active” each time.

(Values after ChEMBL document CHEMBL3860091, “Synthesis and activity of newly designed aroxyalkyl or aroxyethoxyethyl derivatives of piperazine on the cardiovascular and the central nervous systems” (Bioorg Med Chem Lett, 2016).)
